# Results taken from US20160215031A1, “METHOD OF TREATING DISORDERS REQUIRING DESTRUCTION OR REMOVAL OF CELLS” (Nymox Pharnaceutical Corporation, priority 2015, published 2016).
# Marks after values point to notes of the source that are not given here.
# Tests used:
# patients with BPH [1] = assay: Intraprostatic injection in patients with BPH: difference from baseline International Prostate Symptom Score (Mean IPSS Improvement); format: in vivo, men
# Procedure: (§1) In a study of 978 men, patients with BPH were given an intraprostatic injection of either a) DRUG in phosphate buffered saline pH 7.2 (“PBS”) or b) PBS alone, under double-blind conditions by a urologist in an office setting under ultrasound guidance. Each patient was followed for one year or longer with regular physical examinations, laboratory tests, and evaluations of symptoms. Symptomatic evaluation was measured by the International Prostate Symptom Score (IPSS) which is a quantitative scale used to gauge prostatic symptomatic improvement or worsening. The IPSS quantifies the following: 1) incomplete bladder emptying after urination; 2) frequent urination; 3) stopping and starting during urination; 4) urgent need to urinate; 5) weakness of urinary stream; 6) need to push or strain during urination; 7) need to urinate after going to sleep at night (nocturia). The difference from baseline IPSS was compared in patients who were given DRUG vs patients who received PBS alone. Patients who had no previous history of conventional drug treatment (“treatment naïve”) were compared to patients who had previously failed on other conventional approved drugs such as alpha blockers or 5-alpha reductase inhibitors.
# Patients with BPH were given an intraprostatic injection of either a) DRUG in phosphate buffered saline pH 7.2 (“PBS”) or b) PBS alone, under double-blind conditions by a urologist in an office setting under ultrasound guidance. Each patient was followed for one year or longer with regular physical examinations, laboratory tests, and evaluations of symptoms. Symptomatic evaluation was measured by the International Prostate Symptom Score (IPSS) which is a quantitative scale used to gauge prostatic symptomatic improvement or worsening. The IPSS quantifies the following: 1) incomplete bladder emptying after urination; 2) frequent urination; 3) stopping and starting during urination; 4) urgent need to urinate; 5) weakness of urinary stream; 6) need to push or strain during urination; 7) need to urinate after going to sleep at night (nocturia). The difference from baseline IPSS was compared in patients who were given DRUG vs patients who received PBS alone. Patients who had both a) no previous history of conventional drug treatment (“treatment naïve”) and b) their BPH symptoms for <10 years, were compared to patients who had either a) previously failed on other conventional approved drugs such as alpha blockers or 5-alpha reductase inhibitors or b) had their BPH symptoms for >=10 years.
# In a study of 978 men, patients with BPH were given an intraprostatic injection of either a) DRUG in phosphate buffered saline pH 7.2 (“PBS”) or b) PBS alone, under double-blind conditions by a urologist in an office setting under ultrasound guidance. Each patient was followed for one year or longer with regular physical examinations, laboratory tests, and evaluations of symptoms. Symptomatic evaluation was measured by the International Prostate Symptom Score (IPSS) which is a quantitative scale used to gauge prostatic symptomatic improvement or worsening. The IPSS quantifies the following: 1) incomplete bladder emptying after urination; 2) frequent urination; 3) stopping and starting during urination; 4) urgent need to urinate; 5) weakness of urinary stream; 6) need to push or strain during urination; 7) need to urinate after going to sleep at night (nocturia). The difference from baseline IPSS at an average of 22 months after treatment was compared in patients who were given DRUG vs patients who received PBS alone. Patients who were followed for only 12 months were imputed a change from 12 months onward equal to the mean of their group. Patients who had no previous history of conventional drug treatment (“treatment naïve”) were compared to patients who had previously failed on other conventional approved drugs such as alpha blockers or 5-alpha reductase inhibitors. […]
# patients with BPH [2] = assay: Intraprostatic injection in patients with BPH: proportion of patients worsening by IPSS; format: in vivo, men; design: decrease in the proportion of patients worsening over time, compared to the control: concentration or dose not given beside the values
# Procedure: as §1
# Patients with BPH were given an intraprostatic injection of either a) DRUG in phosphate buffered saline pH 7.2 (“PBS”) or b) PBS alone, under double-blind conditions by a urologist in an office setting under ultrasound guidance. Each patient was followed for one year with regular physical examinations, laboratory tests, and evaluations of symptoms. Symptomatic evaluation was measured by the International Prostate Symptom Score (IPSS) which is a quantitative scale used to gauge prostatic symptomatic improvement or worsening. The IPSS quantifies the following: 1) incomplete bladder emptying after urination; 2) frequent urination; 3) stopping and starting during urination; 4) urgent need to urinate; 5) weakness of urinary stream; 6) need to push or strain during urination; 7) need to urinate after going to sleep at night (nocturia). The difference from baseline IPSS was compared in patients who were given DRUG vs patients who received PBS alone. Previous treatment naive patients who had BPH history <10 years were compared to patients with previous treatment failure and to patients with BPH history >=10 years.
substance,measurement,setting,value
"DRUG: NTP peptide given by intraprostatic injection in PBS pH 7.2; sequence not stated in the examples, probably SEQ ID NO. 66 (IDQQVLSRIKLEIKRCL)",improvement of patients symptomatic for less than 10 years compared to patients symptomatic for more than 10 years,patients with BPH [1]; 12 months (Example 5),about 40.9%
same,improvement in treatment naive patients compared to the improvement found in treatment failure patients,patients with BPH [1]; 90 days (Example 1),"~1,700%"
same,increase in treatment naive patients compared to the improvement found in treatment failure patients,patients with BPH [1]; 90 days (Example 1),16.7 fold
same,Mean IPSS Improvement,"patients with BPH [1]; duration of BPH symptoms <10 years, 12 months after treatment",6.2*
same,Mean IPSS Improvement,"patients with BPH [1]; duration of BPH symptoms ≧10 years, 12 months after treatment",4.4
same,improvement compared to previously treated patients receiving the same drug,"patients with BPH [1]; naive <10 years vs previously treated with symptoms for more than 10 years, 22 months (Example 4)",about 61.7%
same,improvement compared to previously treated patients receiving the same drug,"patients with BPH [1]; naive <10 years vs previously treated with symptoms for more than 10 years, 90 days (Example 2)",about 39.7%
same,improvement compared to previously treated patients receiving the same drug,"patients with BPH [1]; naive <10 years vs previously treated, worded 'symptoms for less than 10 years', 22 months (Example 4)",48.6%
same,improvement compared to previously treated patients receiving the same drug,"patients with BPH [1]; naive <10 years vs previously treated, worded 'symptoms for less than 10 years', 90 days (Example 2)",35.4%
same,Mean IPSS Improvement when compared to the control,"patients with BPH [1]; naive patients vs PBS, 22 months (Example 3)",about 52.9%
same,Mean IPSS Improvement when compared to the control,"patients with BPH [1]; naive patients vs PBS, 90 days (Example 1)",about 26.5%
same,Mean IPSS Improvement when compared to the control,"patients with BPH [1]; naive patients, BPH symptoms <10 years, vs PBS, after 22 months (Example 4)",about 61.7%
same,Mean IPSS Improvement,"patients with BPH [1]; no previous treatment (treatment naive), 90 days after treatment",8.6*
same,Mean IPSS Improvement,"patients with BPH [1]; previous BPH treatment (treatment failure), 90 days after treatment",6.5
same,Mean IPSS Improvement,"patients with BPH [1]; treatment failure and duration of BPH symptoms ≧10 years, 22 months after treatment",3.4
same,Mean IPSS Improvement,"patients with BPH [1]; treatment failure and duration of BPH symptoms ≧10 years, 90 days after treatment",6.3
same,Mean IPSS Improvement when compared to the control,"patients with BPH [1]; treatment failure patients vs PBS, 90 days (Example 1)",about 1.5%
same,Mean IPSS Improvement,"patients with BPH [1]; treatment failure, 22 months after treatment",3.7
same,Mean IPSS Improvement,"patients with BPH [1]; treatment naive and duration of BPH symptoms <10 years, 22 months after treatment",5.5*
same,Mean IPSS Improvement,"patients with BPH [1]; treatment naive and duration of BPH symptoms <10 years, 90 days after treatment",8.8*
same,Mean IPSS Improvement,"patients with BPH [1]; treatment naive, 22 months after treatment",5.2*
same,"improvement in proportion of patients worsening, treatment naive compared to treatment failure patients",patients with BPH [2]; 12 months (Example 6),4.15 fold
same,"reduction of the proportion of patients worsening, treatment naive compared to treatment failure patients",patients with BPH [2]; 12 months (Example 6),~420%
same,Proportion of patients worsening,"patients with BPH [2]; IPSS >0 at 12 months, treatment naive",0.097*
same,"decrease in the proportion of patients worsening over time, treatment naive compared to treatment failure patients",patients with BPH [2]; IPSS >0 at one year (Example 7),about 55.6%
same,Proportion of patients worsening,"patients with BPH [2]; IPSS >0 at one year, BPH history ≧10 years",.20
same,Proportion of patients worsening,"patients with BPH [2]; IPSS >0 at one year, treatment naive and BPH symptoms <10 years",.08
same,"decrease in the proportion of patients worsening over time, treatment naive compared to treatment failure patients",patients with BPH [2]; IPSS >1 at one year (Example 7),~50%
same,Proportion of patients worsening,"patients with BPH [2]; IPSS >1 at one year, BPH history ≧10 years",.13
same,Proportion of patients worsening,"patients with BPH [2]; IPSS >1 at one year, treatment failure",.12
same,Proportion of patients worsening,"patients with BPH [2]; IPSS >1 at one year, treatment naive and BPH symptoms <10 years",.06
same,"decrease in the proportion of patients worsening over time, treatment naive compared to treatment failure patients",patients with BPH [2]; IPSS >2 at one year (Example 7),~50%
same,Proportion of patients worsening,"patients with BPH [2]; IPSS >2 at one year, BPH history ≧10 years",.10
same,Proportion of patients worsening,"patients with BPH [2]; IPSS >2 at one year, treatment failure",.08
same,Proportion of patients worsening,"patients with BPH [2]; IPSS >2 at one year, treatment naive and BPH symptoms <10 years",.04***
same,"decrease in the proportion of patients worsening over time, compared to the control","patients with BPH [2]; history of BPH for more than 10 years, IPSS >0 at one year (Example 7)",about 4.7%
same,"decrease in the proportion of patients worsening over time, compared to the control","patients with BPH [2]; history of BPH for more than 10 years, IPSS >1 at one year (Example 7)",~18.8%
same,"decrease in the proportion of patients worsening over time, compared to the control","patients with BPH [2]; history of BPH for more than 10 years, IPSS >2 at one year (Example 7)",~16.7%
same,"decrease in the proportion of patients worsening over time, compared to the control","patients with BPH [2]; naive patients <10 years, IPSS >0 at one year (Example 7)",about 61.9%
same,"decrease in the proportion of patients worsening over time, compared to the control","patients with BPH [2]; naive patients <10 years, IPSS >1 at one year (Example 7)",~62.5%
same,"decrease in the proportion of patients worsening over time, compared to the control","patients with BPH [2]; naive patients <10 years, IPSS >2 at one year (Example 7)",~66.7%
same,"decrease in the proportion of patients worsening over time, compared to the control","patients with BPH [2]; naive patients, IPSS >0 at 12 months (Example 6)",about 51.5%
same,"decrease in the proportion of patients worsening over time, compared to the control","patients with BPH [2]; treatment failure patients, IPSS >0 at 12 months (Example 6)",about 10%
same,"decrease in the proportion of patients worsening over time, compared to the control","patients with BPH [2]; treatment failure patients, IPSS >0 at one year (Example 7)",about 14.3%
same,"decrease in the proportion of patients worsening over time, compared to the control","patients with BPH [2]; treatment failure patients, IPSS >1 at one year (Example 7)",~25%
same,"decrease in the proportion of patients worsening over time, compared to the control","patients with BPH [2]; treatment failure patients, IPSS >2 at one year (Example 7)",~33.3%
